Data set [1] has as its system human embryonic stem cell derived neural stem cells (NSCs). Description: Neural stem cell proliferation assay (neurogenesis assay, ATP levels by CellTiterGlo). The settings on record: Homo sapiens, Neural stem cell, 96 h; compound concentration at which 150% activity of control (100%) is reached; NSC proliferation by ATP (CellTiterGlo) after 4 days incubation; dose response 8 μM to 8 nM. The data set is classed as cell-based. The method, then:
Neural Stem Cell Proliferation Assay
Neurogenic properties of small molecules are determined based on the proliferation of human embryonic stem cell derived neural stem cells (NSCs) which were derived via a dual smad inhibition as previously described (Chambers, S. M., et al., Highly efficient neural conversion of human ES and iPS cells by dual inhibition of SMAD signaling, Nature biotechnology, 2009. 27(3): p. 275-80.)
Compounds respond is measured by the increase in cells based on ATP levels (Promega:CellTiterGlo®) after an incubation period of 4 days.
NSCs are thawed and expanded over 3 passages. On the 14th day, NSCs are seeded in Polyornithin/Laminin coated 384 well plates at a cell density of 21,000 cells/cm^2 in a media volume of 38 μl.
4 hours after cell seeding, compound solutions are added at a volume of 2 μl. Stock solutions of the compounds (water, 5% DMSO) are diluted to obtain a dose response (11 points, dilution factor is 2), ranging from 8 μM to 8 nM. Controls are run to consistently determine the neurogenic properties of the cells: • Negative (neutral) control is cell culture Media (final DMSO concentration: 0.25%). • Positive controls are: • 1. cell culture Media+100 ng/ml FGF2 (final DMSO concentration: 0.1%) • 2. cell culture Media+20 ng/ml EGF (final DMSO concentration: 0.1%) • 3. cell culture Media+100 ng/ml Wnt3a (final DMSO concentration: 0.1%)
After 4 days incubation at 37° C., 5% CO2, the amount of ATP per well is quantified. The ATP concentration is proportional to the cell number. ATP is quantified by using the Promega CellTiterGlo® kit. The CellTiterGlo® reagents contain a cell lysis buffer, a thermo stable luciferase (UltraGlo™ recombinant luciferase), magnesium and luciferin. Luciferin reacts with ATP producing oxyluciferin, AMP and light. The luminescence signal is proportional to the ATP content.
The value of negative (neutral) control is determined for each assay plate by taking the average of 16 negative control wells. The neurogenic compound response is calculated for each compound as (compound/Negative Control)*100.
The values of EC150 from the dose response curve are determined for each test compound. The EC150 is the compound concentration at which 150% activity of control (100%) is reached.
For orientation: ATP-based viability assays read luminescence as a measure of living cells.

This note sets out measurements from patent US9464049B2, “Indole-carboxamides” (Hoffmann-La Roche Inc., priority 2013, dated 2016).

Usually melting point stands for the temperature of the solid-liquid transition.

In the case of `Cc1c(C(N)=O)[nH]c2c(-c3ccc(Cl)c(F)c3)cc(Cl)cc12` [Example 31, 5-Chloro-7-(4-chloro-3-fluorophenyl)-3-methyl-1H-indole-2-carboxamide], the melting point was found to be 283 °C. The EC (150% of control) in data set [1] amounted to 0.43 µM.

Take `Cc1c(C(N)=O)n(C)c2c(-c3ccc(Cl)c(F)c3)cc(Cl)cc12` [Example 32, 5-Chloro-7-(4-chloro-3-fluorophenyl)-1,3-dimethylindole-2-carboxamide]: the melting point came to 192 °C. Also, the EC (150% of control) in data set [1] came to 1.02 µM.

Compound `N#Cc1cc(-c2ccc(F)cc2)c2[nH]c(C(N)=O)cc2c1` [Example 34, 5-Cyano-7-(4-fluorophenyl)-1H-indole-2-carboxamide] displayed a melting point of 234 °C. The EC (150% of control) in data set [1] was found to be 0.057 µM.

`N#Cc1cc(-c2ccc(Cl)cc2)c2[nH]c(C(N)=O)cc2c1` [Example 35, 7-(4-Chlorophenyl)-5-cyano-1H-indole-2-carboxamide] registered a melting point of 267.5 °C. In data set [1], this compound showed an EC (150% of control) of 0.021 µM.

For the compound `N#Cc1cc(-c2ccc(C(F)(F)F)cc2)c2[nH]c(C(N)=O)cc2c1` [Example 36, 5-Cyano-7-[4-(trifluoromethyl)phenyl]-1H-indole-2-carboxamide], the melting point worked out at 277.5 °C. Further, the EC (150% of control) in data set [1] came to 0.1 µM.

`Cn1c(C(N)=O)cc2cc(C#N)cc(-c3ccc(C(F)(F)F)cc3)c21` [Example 37, 5-Cyano-1-methyl-7-[4-(trifluoromethyl)-phenyl]-indole-2-carboxamide]: the melting point was 171 °C. The same compound returned an EC (150% of control) in data set [1] of 2.62 µM.

For the compound `Cn1c(C(N)=O)cc2cc(C#N)cc(-c3ccc(F)cc3)c21` [Example 38, 5-Cyano-7-(4-fluorophenyl)-1-methylindole-2-carboxamide], the melting point worked out at 203.5 °C. For the same compound, in data set [1], the EC (150% of control) stood at 0.19 µM.

As for `Cn1c(C(N)=O)cc2cc(C#N)cc(-c3ccc(Cl)cc3)c21` [Example 39, 7-(4-Chlorophenyl)-5-cyano-1-methylindole-2-carboxamide], the melting point was determined as 176 °C. In data set [1], this compound gave an EC (150% of control) of 0.18 µM.

`Cn1c(C(N)=O)cc2cc(C#N)cc(-c3ccc(F)c(F)c3)c21` [Example 40, 5-Cyano-7-(3,4-difluorophenyl)-1-methylindole-2-carboxamide] returned a melting point of 184.5 °C. Moreover, the EC (150% of control) in data set [1] amounted to 0.2 µM.

Compound `N#Cc1cc(-c2ccc(F)cc2F)c2[nH]c(C(N)=O)cc2c1` [Example 41, 5-Cyano-7-(2,4-difluorophenyl)-1H-indole-2-carboxamide] had a melting point of 289.5 °C. The same compound yielded an EC (150% of control) in data set [1] of 0.025 µM.

Consider `N#Cc1cc(-c2ccc(Cl)cc2Cl)c2[nH]c(C(N)=O)cc2c1` [Example 42, 5-Cyano-7-(2,4-dichlorophenyl)-1H-indole-2-carboxamide], for which the melting point was found to be 276.5 °C. The EC (150% of control) in data set [1] was 0.047 µM.

Consider `N#Cc1ccc(-c2cc(C#N)cc3cc(C(N)=O)[nH]c23)cc1` [Example 43, 5-Cyano-7-(4-cyanophenyl)-1H-indole-2-carboxamide], for which the melting point turned out to be 299 °C. Moreover, in data set [1], the EC (150% of control) was 0.2 µM.

`N#Cc1cc(-c2ccc(OC(F)(F)F)cc2)c2[nH]c(C(N)=O)cc2c1` [Example 44, 5-Cyano-7-[4-(trifluoromethoxy)-phenyl]-1H-indole-2-carboxamide] returned a melting point of 247 °C. In data set [1], this compound returned an EC (150% of control) of 0.17 µM.

As to `Cc1c(C(N)=O)[nH]c2c(-c3ccc(F)cc3)cc(F)cc12` [Example 45, 5-Fluoro-7-(4-fluorophenyl)-3-methyl-1H-indole-2-carboxamide], the melting point is 219 °C. For the same compound, the EC (150% of control) in data set [1] stood at 0.068 µM.

Take `Cc1c(C(N)=O)[nH]c2c(-c3ccc(Cl)cc3)cc(F)cc12` [Example 46, 7-(4-Chlorophenyl)-5-fluoro-3-methyl-1H-indole-2-carboxamide]: the melting point was 230 °C. This compound gave an EC (150% of control) in data set [1] of 0.066 µM.

Compound `Cc1c(C(N)=O)[nH]c2c(-c3ccc(F)c(F)c3)cc(F)cc12` [Example 47, 7-(3,4-Difluorophenyl)-5-fluoro-3-methyl-1H-indole-2-carboxamide] came in with a melting point of 208 °C. Further, in data set [1], the EC (150% of control) was 0.052 µM.

`Cc1c(C(N)=O)[nH]c2c(-c3ccc(C(F)(F)F)cc3)cc(F)cc12` [Example 48, 5-Fluoro-3-methyl-7-[4-(trifluoromethyl)-phenyl]-1H-indole-2-carboxamide]: the melting point was 200 °C. Besides, in data set [1], the EC (150% of control) is 0.11 µM.

`Cc1c(C(N)=O)n(C)c2c(-c3ccc(F)cc3)cc(F)cc12` [Example 49, 5-Fluoro-7-(4-fluorophenyl)-1,3-dimethylindole-2-carboxamide] displayed a melting point of 202 °C. The compound also had an EC (150% of control) in data set [1] of 0.17 µM.

`Cc1c(C(N)=O)n(C)c2c(-c3ccc(Cl)cc3)cc(F)cc12` [Example 50, 7-(4-Chlorophenyl)-5-fluoro-1,3-dimethylindole-2-carboxamide] showed a melting point of 210 °C. Also, the EC (150% of control) in data set [1] is 0.12 µM.

With `Cc1c(C(N)=O)n(C)c2c(-c3ccc(C(F)(F)F)cc3)cc(F)cc12` [Example 51, 5-Fluoro-1,3-dimethyl-7-[4-(trifluoromethyl)-phenyl]-indole-2-carboxamide], the melting point amounted to 222 °C. Moreover, the EC (150% of control) in data set [1] came out at 0.13 µM.

`Cc1c(C(N)=O)n(C)c2c(-c3ccc(F)c(F)c3)cc(F)cc12` [Example 52, 7-(3,4-Difluorophenyl)-5-fluoro-1,3-dimethylindole-2-carboxamide] yielded a melting point of 186 °C. The EC (150% of control) in data set [1] came to 0.7 µM.

`Cc1c(C(N)=O)[nH]c2c(-c3ccc(C#N)cc3)cc(F)cc12` [Example 53, 7-(4-Cyanophenyl)-5-fluoro-3-methyl-1H-indole-2-carboxamide]: the melting point was 230 °C. Further, the EC (150% of control) in data set [1] was 0.04 µM.

As to `Cc1c(C(N)=O)[nH]c2c(-c3ccc(OC(F)(F)F)cc3)cc(F)cc12` [Example 54, 5-Fluoro-3-methyl-7-[4-(trifluoromethoxy)phenyl]-1H-indole-2-carboxamide], the melting point was 108 °C. The EC (150% of control) in data set [1] stood at 0.2 µM.

As to `Cc1c(C(N)=O)[nH]c2c(-c3ccc(F)cc3F)cc(F)cc12` [Example 55, 7-(2,4-Difluorophenyl)-5-fluoro-3-methyl-1H-indole-2-carboxamide], the melting point came out at 200 °C. Besides, the EC (150% of control) in data set [1] amounted to 0.026 µM.

Compound `Cc1c(C(N)=O)[nH]c2c(-c3ccc(Cl)cc3Cl)cc(F)cc12` [Example 56, 7-(2,4-Dichlorophenyl)-5-fluoro-3-methyl-1H-indole-2-carboxamide] had a melting point of 198 °C. In addition, the EC (150% of control) in data set [1] is 0.027 µM.

`N#Cc1cc(-c2ccc(Cl)cc2F)c2[nH]c(C(N)=O)cc2c1` [Example 57, 7-(4-Chloro-2-fluorophenyl)-5-cyano-1H-indole-2-carboxamide] returned a melting point of 286.5 °C. In data set [1], this compound gave an EC (150% of control) of 0.066 µM.

As for `Cn1c(C(N)=O)cc2cc(C#N)cc(-c3ccc(Cl)cc3F)c21` [Example 58, 7-(4-Chloro-2-fluorophenyl)-5-cyano-1-methylindole-2-carboxamide], the melting point was determined as 192 °C. Further, the EC (150% of control) in data set [1] was 1.67 µM.

For `Cc1c(C(N)=O)n(C)c2c(-c3ccc(C#N)cc3)cc(F)cc12` [Example 59, 7-(4-Cyanophenyl)-5-fluoro-1,3-dimethylindole-2-carboxamide], the melting point stood at 245 °C. Further, the EC (150% of control) in data set [1] came out at 0.083 µM.

In turn, `Cc1c(C(N)=O)n(C)c2c(-c3ccc(OC(F)(F)F)cc3)cc(F)cc12` [Example 60, 5-Fluoro-1,3-dimethyl-7-[4-(trifluoromethoxy)phenyl]indole-2-carboxamide] displayed a melting point of 171 °C. The compound also gave an EC (150% of control) in data set [1] of 0.22 µM.

Consider `Cc1c(C(N)=O)n(C)c2c(-c3ccc(Cl)cc3Cl)cc(F)cc12` [Example 61, 7-(2,4-Dichlorophenyl)-5-fluoro-1,3-dimethylindole-2-carboxamide], for which the melting point turned out to be 169 °C. The compound also showed an EC (150% of control) in data set [1] of 0.21 µM.

`Cn1c(C(N)=O)cc2cc(C#N)cc(-c3ccc(F)cc3F)c21` [Example 62, 5-Cyano-7-(2,4-difluorophenyl)-1-methylindole-2-carboxamide] yielded a melting point of 206.5 °C. In data set [1], this compound displayed an EC (150% of control) of 0.12 µM.
